The subject of test [1] is citric acid-induced cough in guinea pigs. Description: In vivo citric acid-induced cough in guinea pigs (whole body plethysmograph). The conditions noted are these: for cough incubation period: p<0.05 vs saline control (232 seconds). The procedure:
As depicted in FIG. 1, cough induction is conducted by placing guinea pigs into a whole body plethysmograph (WBP) equipped with a Aeroneb™ vibrating mesh nebulizer, and including pressure transducers and detection equipment (EMKA technologies). A primary microphone is supplied (EMKA Technologies) for acoustic confirmation of cough frequency in the form of a digital trace using the EMKA software.
A secondary microphone (T1 True Wireless Earphone, QCY®) also is placed in the chamber and connected to a smartphone via Bluetooth to enable the observers to hear the audible sounds during the test. A bias flow rate of 2 L/min is used to continuously draw either atmospheric air (during the fresh air period) or aerosolized citric acid from the nebulizer into the WBP and expel it out through an exhaust pipe. Chamber pressure in the WBP is set to be between −10 to −30 Pa relative to ambient pressure.
Prior to the citric acid challenge, the guinea pigs are administered (intraperitoneal injection) with vehicle control, positive control or test compound (where applicable) with different dosage (Table 2) and placed individually into the WBP for at least 5 minutes in order to habituate.
The procedure was as follows: Injection→mice in box having citric acid for 10 mins (counting the cough)→box then fill with air for 5 mins (counting the cough)→mice move to recovery cage.
Appropriate concentration of citric acid is used to generate aerosol and deliver to WBP for 10 minutes with constant recording of pressure measurements. The mean concentration of citric acid was 1283.1±137.2 μg/L. Upon completion of citric acid challenge, the guinea pig is allowed to recover and continue recording of cough counts for another 5 minutes. Subsequently, the guinea pigs are closely monitored in recovery cage for full recovery from the challenge and that no adverse events were present before returning the animals to its home cage. Cough counts (CCnt) are recorded over a period of at least 10 mins, starting from citric acid stimulation and cough incubation period (CIP) are defined as the time it takes to cough for the first time after citric acid stimulation.
The cough response during citric acid challenge and post-treatment recovery is carefully monitored using: • continuous pressure monitoring (plethysmography monitoring software) • acoustic confirmation of cough using microphones (primary and secondary) • visual confirmation of cough through posture change.
The data were analysed using Oneway ANOVA (*p<0.05, **p<0.01, ***p<0.001, ****p<0.0001) when compared to saline control, and each column represents Mean±SEM.

The next test concerns the target T1, human α7 nAChR subtype (Homo sapiens, UniProt P36544).
T1 construct: expressed in transfected cells; host or cells: SH-SY5Y cells (membranes)
Description: biochemical. The test is classed as binding.

This note sets out measurements from patent US20250268910A1 (priority 2022, published 2025).

T1 sequence (P36544 23-502): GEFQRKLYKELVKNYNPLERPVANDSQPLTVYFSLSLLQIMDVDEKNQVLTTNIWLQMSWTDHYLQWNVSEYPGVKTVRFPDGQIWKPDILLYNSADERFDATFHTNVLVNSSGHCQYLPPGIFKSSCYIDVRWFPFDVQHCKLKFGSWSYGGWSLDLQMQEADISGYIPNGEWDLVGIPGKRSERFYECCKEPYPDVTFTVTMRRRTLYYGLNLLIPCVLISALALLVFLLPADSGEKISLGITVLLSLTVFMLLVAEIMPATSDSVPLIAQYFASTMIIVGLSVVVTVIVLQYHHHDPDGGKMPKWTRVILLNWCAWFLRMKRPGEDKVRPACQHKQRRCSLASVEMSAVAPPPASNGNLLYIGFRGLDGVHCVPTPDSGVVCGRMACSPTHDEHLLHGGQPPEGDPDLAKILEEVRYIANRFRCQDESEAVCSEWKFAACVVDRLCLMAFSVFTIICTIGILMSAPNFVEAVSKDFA

As usually defined, the Ki is a dissociation constant, usually derived from enzyme kinetics or from competition with a known ligand. For `C1=C(c2ccc(-c3ccccc3)nc2)C2CCN(C1)CC2` [4-(6-Phenyl-3-pyridyl)-1-azabicyclo[3.2.2]non-3-ene], the “citric acid-induced cough counts (number of coughs)” value in test [1] (high concentration 15 mg/kg intraperitoneal, p<0.05 vs saline control (13 coughs)) stood at 7; in test [1] (low concentration 1.5 mg/kg intraperitoneal, p<0.0001 vs saline control (13 coughs)) it was 3; in test [1] (medium concentration 5 mg/kg intraperitoneal, p<0.05 vs saline control (13 coughs)) it was 6. The values for the cough incubation period in test [1] (high concentration 15 mg/kg intraperitoneal) and in test [1] (low concentration 1.5 mg/kg intraperitoneal) were 491 s and 504 s, respectively. On human α7 nAChR subtype, this compound showed a Ki of 130 nM.
The compound `C1=C(c2ccc(-c3ccccc3)nn2)C2CCN(C1)CC2` [4-(6-Phenylpyridazin-3-yl)-1-azabicyclo[3.2.2]non-3-ene] had a Ki at human α7 nAChR subtype of 320 nM.
